Data taken from patent US8293771B2, “p38 MAP kinase inhibitors” (Respivert Ltd., priority 2008, dated 2012).

What was measured:
[1] = test system: Differentiated U937 cells; assay: MTT assay in differentiated U937 cells; format: cell-based, human; details: 4, 24 h (10 ug/ml)
Protocol: Differentiated U937 cells were pre-incubated with compound for 4 hrs in 5% FCS or 10% FCS for 24 hrs and 72 hrs. The supernatant was replaced with 200 ul of new media and 10 ul of MTT stock solution (5 mg/ml) added to each well. After 1 hr incubation, the media were removed, 200 ul of DMSO added to each well and the plates were shaken lightly for 1 hour prior to reading the absorbance at 550 nm.
The percentage loss of cell viability was calculated for each well relative to vehicle (0.5% DMSO)-treatment. Consequently an apparent increase in cell viability for drug treatment relative to vehicle is tabulated as a negative percentage.

[2] = test system: neutrophil and macrophage accumulation into airways of mice exposed to cigarette smoke; assay: Cigarette smoke model; format: in vivo, A/J mice; details: intra-nasal, twice daily for 3 days
Protocol: A/J mice (males, 5 weeks old) were exposed to cigarette smoke (4% cigarette smoke, diluted with compressed air) for 30 min/day for 11 days using a Tobacco Smoke Inhalation Experiment System for small animals (Model SIS-CS; Sibata Scientific Technology, Tokyo, Japan). Test substances were given intra-nasally (35 μl of solution in 50% DMSO/PBS) and therapeutically twice daily for 3 days after the final cigarette smoke exposure. Twelve hours after the last dosing, animals were anesthetized, the trachea cannulated and bronchoalveolar lavage fluid (BALF) was collected. The numbers of alveolar macrophages and neutrophils were determined by FACS analysis (EPICS® ALTRA II, Beckman Coulter, Inc., Fullerton, Calif., USA) using anti-mouse MOMA2 antibody (macrophage) or anti-mouse 7/4 antibody (neutrophil).
The results are shown in FIG. 3 for activated alveolar macrophages and in FIG. 4 for neutrophils. Data for cell numbers are shown as the mean±SEM.

[3] = test system: Differentiated U937 cells; assay: LPS-induced TNFα release in differentiated U937 cells; format: cell-based; details: Homo sapiens, U-937; 0.1 ug/ml LPS, 4 hrs; compound pre-incubated 2 hrs
Protocol: U937 cells, human monocytic cell line, were differentiated to macrophage-type cells by incubation with phorbol myristate acetate (PMA; 100 ng/ml) for 48 to 72 hours. Where appropriate, cells were pre-incubated with final concentrations of compound for 2 hrs. Cells were then stimulated with 0.1 ug/ml of LPS (from E. Coli: O111:B4, Sigma) for 4 hrs, and the supernatant collected for determination of TNFα concentration by sandwich ELISA (Duo-set, R&D systems). THP-1, human monocytic cell line, was also used for this assay. THP-1 cells were stimulated with 1 ug/ml of LPS (from E. Coli: O111:B4, Sigma) for 4 hrs, and the supernatant collected for determination of TNFα concentration.

[4] = test system: LPS-induced neutrophil accumulation; assay: LPS-induced neutrophilia in the mouse; format: in vivo
[5] = test system: ovalbumin-mediated lung function changes (sGaw); assay: Ovalbumin challenge/parainfluenza infection model (in vivo model for steroid resistance); design: species or system Dunkin-Hartley guinea-pigs
Protocol: Male Dunkin-Hartley guinea-pigs (300-350 g, n=6/group) were sensitised with 100 μg ovalubumin (OVA)+100 mg Al2(OH)3 in 1 ml normal saline (i.p.) on days 2 and 6. Parainfluenza virus (PIV-3; 10^6 infectious units) or media without virus was nasally instilled on days 11 and 12. Animals were treated with nebulised fluticasone propionate at a dose of 1.5 mg per day. […] All animals were challenged for 1 h with nebulised OVA (10 μg/ml) on day 15 and repeated measurements of specific airways conductance (sGaw) were made over a 24 h period using whole body plethysmography. Measurements of sGaw after OVA challenge are plotted as % change from baseline.

Compound	Differentiated U937 cells MTT assay [1]	Efficacy in cigarette smoke model of steroid-resistant inflammation [2]	IC50 [3] [nM]	Inhibition of LPS-induced neutrophil accumulation ([4]; mouse, intra tracheal pre-dosing, BALF 8 hours after LPS)	Duration of effect on LPS-induced neutrophil accumulation ([4]; mouse, pre-dose time before LPS)	Efficacy in ovalbumin challenge/parainfluenza model of steroid-resistant inflammation ([5]; guinea pigs, PIV3 inoculated, 4.5 mg per day nebulised)	inhibition at 50 µg/mL ([4]; Mus musculus, Neutrophil, 50 μg/ml (35 μl, bid)) [%]	Ovalbumin-mediated lung function changes ([5]; sensitized animals treated with PIV3 medium (no virus), nebulised 1.5 mg per day)
COCC(=O)Nc1cc(COc2ccc(NC(=O)Nc3cc(C(C)(C)C)nn3-c3ccc(C)cc3)c3ccccc23)ccn1 [Example 1, N-[4-({4-[3-(3-tert-Butyl-1-p-tolyl-1H-pyrazol-5-yl)ureido]naphthalen-1-yloxy}methyl)pyridin-2-yl]-2-methoxyacetamide]	Negative^2	effective	0.88	effective in inhibiting LPS-induced neutrophil accumulation	significant inhibition even at 12 or more hours of pre-dosing	effective		
CCC(=O)O[C@]1(C(=O)SCF)[C@H](C)C[C@H]2[C@@H]3C[C@H](F)C4=CC(=O)C=C[C@]4(C)[C@@]3(F)[C@@H](O)C[C@@]21C [fluticasone propionate, reference compound]							> 80	inhibited ovalbumin-mediated lung function changes
